No end group written: not given here.
Columns and labels:
[1] = system: cochlear hair cells of Rosa-tdTomato f/f (floxP-tdTomato) mice; assay: Supercharged GFP-Cre delivery to hair cells of tdTomato reporter mouse cochlea in vivo; details: for hair cells tdT-labeled: near the injection site (base turn of cochlea)
Procedure: FIGS. 10A and 10B show the in vivo delivery of Cre recombinase to hair cells in the mouse inner ear. FIG. 10A: The scala media (cochlear duct) of P0 floxP-tdTomato mice (n=4) were injected with 0.3 μL of 23 μM (−30)GFP-Cre in 50% RNAiMAX or with RNAiMAX alone (control). After 5 days, tdTomato expression indicative of Cre-mediated recombination was visualized using immunohistology. Red=tdTomato; green=Myo7a; white=Sox2; blue=DAPI. Yellow brackets indicate the outer hair cell (OHC) region. […] Red=tdTomato; green=Esp, white=Sox2; blue=DAPI, Scale bars: 10 μm.
P1 floxP-tdTomato mice (The Jackson Laboratory) were used for (−30)GFP-Cre injection and P2 Atoh1-GFP mice (Dr. J Johnson, Southwestern Medical Center, University of Texas) were used for Cas9:sgRNA injection. Animals were used under protocols approved by the Massachusetts Eye & Ear Infirmary ALCUC committee. Mice were anesthetized by lowering their temperature on ice. Cochleostomies were performed by making an incision behind the ear to expose the cochlea. Glass micropipettes held by a micromanipulator were used to deliver the complex into the scala media, which allows access to inner ear hair cells. For delivery of (−30)GFP-Cre, 3 μL of 45 μM protein was mixed with 3 μL of either RNAiMAX or Lipofectamine 2000 and incubated at room temperature for 30 minutes prior to injection. Four mice were injected per treatment group. […]
5-10 days after injection, the mice were sacrificed and cochlea were harvested by standard protocols. […] To quantify the number of tdTomato positive cells after (−30)GFP-Cre or GFP negative cells after Cas9:sgRNA delivery, the total number of outer hair cells were counted in a region spanning 200 μm around the site of injection in the base turn of the cochlea. The efficiency of (−30)GFP-Cre-induced recombination or Cas9:sgRNA-induced genome modification was calculated as the percentage of outer hair cells that expressed tdTomato or that lost GFP expression. […]

BSR.LNL.tdTomato cells [2] = assay: Primary screen for cytosolic delivery of Cre recombinase (fluorescence image analysis); format: cell-based, hamster; details: for level of recombination of sortase-conjugated peptide-(+36 GFP)-Cre: 250 nM, primary screen
Procedure: Initial screen of 20 peptide-(+36 GFP)-Cre conjugated proteins. Cytosolic Cre delivery results in recombination and tdTomato expression. The percentage of tdTomato positive cells was determined by fluorescence image analysis. […] Cells were washed and supplanted with full DMEM and incubated for 48 h. Error bars represent the standard deviation of three independent biological replicates.
BSR.LNL.tdTomato cells were plated at 10,000 cells per well in black 384-well plates (Aurora Biotechnologies). […] Following incubation, the cells were washed three times with PBS+20 U/mL heparin. The cells were incubated a further 48 h in serum-containing media. Cells were fixed in 3% paraformaldehyde and stained with Hoescht 33342 nuclear dye. […] Images were exposed for 10 ms in the DAPI channel (Hoechst) and 500 ms in the dsRed channel (tdTomato). Image analysis was performed using the cell-scoring module of MetaXpress software (Molecular Devices). All nuclei were detected with a minimum width of 1 pixel, maximum width of 3 pixels, and an intensity of 200 gray levels above background. Positive cells were evaluated for uniform signal in the dsRed channel (minimum width of 5 pixels, maximum width of 30 pixels, intensity >200 gray levels above background, 10 μm minimum stained area). In total, nine images were captured and analyzed per well, and 16 wells were treated with the same fusion protein. The primary screen was completed in biological triplicate.
Because Cre recombinase must enter the cell, escape endosomes, enter the nucleus, and catalyze recombination to generate tdTomato fluorescence, this assay reflects the availability of active, non-endosomal recombinase enzyme that reaches the nucleus.
The reporter BSR.LNL.tdTomato cells were incubated with 250 nM of each peptide-(+36 GFP)-Cre protein in serum-free media.

[3] = system: cochlear inner hair cells, outer hair cells and supporting cells; format: in vivo
Procedure: 0.4 μL of 50 μM+36 GFP-Cre or aurein 1.2-+36 GFP-Cre were injected into the scala media. […] Inner hair cells (IHC), outer hair cells (OHC) and supporting cells in the sensory epithelium (SE) were imaged for the presence of tdTomato, which is only expressed following Cre-mediated recombination. Hair cells were labeled with antibodies against the hair-cell marker Myo7a.
P1-2 Gt(ROSA)26Sor^tm14(CAG-tdTomato)Hze mice were used for aurein 1.2-+36-GFP-Cre and +36-GFP-Cre injection. The Rosa26-tdTomato mice were from the Jackson Laboratory. Animals were used under protocols approved by the Massachusetts Eye & Ear Infirmary IACUC committee. Mice were anesthetized by hypothermia on ice. Cochleostomies were performed by making an incision behind the ear to expose the cochlea. Glass micropipettes held by a micromanipulator were used to deliver the complex into the scala media, which allows access to inner ear hair cells. The total delivery volume for every injection was 0.4 μL per cochlea and the release was controlled by a micromanipulator at the speed of 69 nL/min.
To quantify the number of tdTomato positive cells after aurein 1.2-+36-GFP-Cre and +36-GFP-Cre, we counted the total number of inner and outer hair cells in a region spanning 100 μm in the apex, middle, and base turn of the cochlea.
Both the hair cells (Myo7a+) and supporting cells (Myo7a−) were evaluated for td Tomato signal.

BSR.LNL.tdTomato cells [4] = assay: ATP-dependent cell viability assay (CELLTITER-GLO); details: 1 μM, 48 h after treatment
Procedure: (§1) FIGS. 15A, 15B are graphs showing the efficacy and toxicity of recombinant expression fusions of aurein 1.2 (“E”) and citropin 1.3 (“U”). […] The percentage of tdTomato positive cells was determined by flow cytometry. Protein fusions were delivered at 125 nM, 250 nM, 500 nM, and 1 μM. […] Protein fusions were delivered at 125 nM, 250 nM, 500 nM, and 1 μM. […] Cells were treated with 250 nM protein for 4 h in serum-free media. Cells were washed and supplanted with full DMEM and incubated for 48 h. Error bars represent the standard deviation of three independent biological replicates.
(§2) Uptake and delivery assays for Cre fusion proteins were performed as previously described (Cronican, J. J.; et al. ACS Chemical Biology 2010, 5, 747). Briefly, proteins were diluted in serum-free DMEM and incubated on the cells in 48-well plates for 4 h at 37° C. Following incubation, the cells were washed three times with PBS+20 U/mL heparin. The cells were incubated a further 48 h in serum-containing media prior to trypsinization and analysis by flow cytometry. […] Toxicity for alanine scan mutational analysis was determined with LIVE/DEAD fixable far-red dead cell stain (Life Technologies) with 635 nm laser and 670/30 nm filter.
Next, the toxicity of each fusion protein was evaluated at a range of concentrations (125 nM to 1 μM) using an ATP-dependent cell viability assay at 48 h after treatment.

[5] = system: inner ear cell types (IHC, OHC, SC) of Rosa-tdT mouse; assay: (+36)-GFP-aurein-Cre injection into P3 Rosa-tdT mouse inner ear by cochleostomy; format: in vivo; details: 50 μM
Procedure: FIGS. 11A-11E show the high efficiency of protein delivery mediated by aurein in the inner ear in vivo. […] FIG. 11E: In Opti-MEM injected control mice no tdT labeling was detected in any inner ear cells. Scale bars: 10 μm.
It was next tested whether Aurein, an antimicrobial peptide, in combination with s-GFP, can serve as an effective carrier to deliver functional proteins into mouse inner ear cell types with high efficiency. (+36)-GFP-aurein-Cre was injected with different concentrations into P3 Rosa-tdT mouse inner ear by cochleostomy in vivo. The tissues were harvested 5 days later for immunolabeling to identify tdT^+ inner ear cell types. […] At 22.5 μM, 58% of OHC and 75% of IHC, as well as 8% of SC were tdT^+. At the highest 50 μM, 96% of OHC, 88% of IHC and 19% of SC were tdT^+. Some spiral ganglion neurons were also tdT at 22.5 and 50 μM (FIGS. 11A-11E and FIG. 12).

mouse retina = details: +36 GFP-Cre alone; cited from earlier work
[6] = system: glucocorticoid receptor (GR-mCherry) in HeLa cells; assay: GR-mCherry translocation assay; format: cell-based; details: 1 μM for 30 min, HeLa cells expressing GR-mCherry
Procedure: One day prior to transfection 10,000 HeLa cells in 200 μL of DMEM (10% FBS, 1× Pen-Strep) were plated into single wells of a 96-well MATRICAL glass bottom microplate (MGB096-1-2-LG-L) and allowed to adhere overnight. The following day, cells were transfected with GRmCherry using LIPOFECTAMINE® 2000 technologies. Following transfection, cells were allowed to recover overnight in DMEM (+10% FBS). The following day, cells were treated with dexamethasone (Dex) or 1 μM Dex-protein conjugate in the presence or absence of inhibitor diluted into DMEM (without phenol red, +300 nM Hoescht33342). After 30 min, cells were washed twice with 200 μL of HEPES-Krebs-Ringer's (HKR) buffer (140 mM NaCl, 2 mM KCl, 1 mM CaCl2, 1 mM MgCl2, and 10 mM HEPES at pH 7.4), after which 100 μL of HKR buffer was overlaid onto the cells and images were acquired on a Zeiss Axiovert 200M epifluorescence microscope outfitted with Ziess AxiocammRM camera and an EXFO-Excite series 120 Hg arc lamp. The translocation ratio (the ratio of median […] intensity in the nuclear and surrounding regions) for individual cells was measured using CELLPROFILER® as described 36. […]
Although endosomal escape is widely considered to be the major bottleneck of cationic protein delivery (Sahay, G.; et al. Nature Biotechnology 2013, 31, 653), few assays quantify the ability of proteins to escape endosomes on a single-cell basis.

BSR.LNL.tdTomato cells [7] = assay: Toxicity of aurein 1.2 variants fused to +36 GFP-Cre; format: cell-based, hamster; details: 250 nM
Excerpt: FIGS. 16A, 16B are graphs showing the activity and cytotoxicity of aurein 1.2 variants fused to +36 GFP-Cre (FIG. 16A). […] (FIG. 16B) Toxicity as determined by CELLTITERGLO (Promega) assay.

BSR.LNL.tdTomato cells [8] = assay: Cre delivery assay with expressed fusion proteins (flow cytometry); format: cell-based, hamster; details: 250 nM, compared with unmutated aurein 1.2-+36 GFP-Cre
Procedure: as §1
as §2, with “cytometry. All flow cytometry were carried out on a BD Fortessa flow cytometer (Becton-Dickinson) using 530/30 nm and 610/20 nm filter sets.” for “cytometry.”

In the case of “(−30)GFP-Cre: negatively supercharged GFP fused to Cre recombinase, SEQ ID NO: 4”, the “hair cells tdT-labeled” value [1] is reported as about 30% and the “stereocilia of tdTomato-positive outer hair cells” value ([1]; ten days after delivery, 23 μM in 50% RNAiMAX, P0 floxP-tdTomato mice) is reported as “intact espin (Esp)-expressing stereocilia”.
For “+36 GFP-Cre: superpositively charged GFP fused to Cre recombinase, SEQ ID NO: 1”, the “recombined cells with chloroquine (positive control)” value (BSR.LNL.tdTomato cells [2]; 250 nM protein incubated with 100 μM chloroquine) was 48%, the “cells expressing tdTomato (recombined cells)” value (BSR.LNL.tdTomato cells [2]; 250 nM protein, 4 h serum-free media, then 48 h) was 4.5% and the “Cre-mediated recombination in inner hair cells (IHC)” value ([3]; apex, 50 μM) was 4.4%. The cell viability (BSR.LNL.tdTomato cells [4]) was 85%, the “hair cells tdT-labeled” value [1] was about 30% and the “tdT labeling of cochlear cell types” value [5] was “very few IHC and HC were labeled with tdT”. For the same substance, the “recombination in mouse retina” value (mouse retina) was “modest levels of recombination”.
With “Arg8^Dex: canonical cell permeable peptide (SEQ ID NO: 102), dexamethasone-labeled positive control (RRRRRRRR; also: dexamethasone label)” the “nuclear-to-cytoplasm translocation ratio (TR)” value [6] was 1.63.
In the case of “GLFDIIKKIAEAF [S12A, aurein 1.2 variant expressed as fusion with +36 GFP-Cre]”, the “toxicity of aurein 1.2 variants” value (BSR.LNL.tdTomato cells [7]) is reported as “increased toxicity” and the “recombination efficiency of aurein 1.2 variants fused to +36 GFP-Cre” value (BSR.LNL.tdTomato cells [8]) is reported as “potentially improved overall recombination efficiency”.
In the case of GLFDIIKKIAESF [aurein 1.2], the “level of recombination of sortase-conjugated peptide-(+36 GFP)-Cre” value (BSR.LNL.tdTomato cells [2]) is reported as “highest level of recombination” and the “potency of Cre delivery into cochlear hair cells when fused with aurein 1.2 vs absence of the peptide” value ([3]; live mice) is reported as over 20 fold.
For “GLFDIIKKVASVIGGL (listed as Litoria citropa) [citropin 1.3]”, the “level of recombination of sortase-conjugated peptide-(+36 GFP)-Cre” value (BSR.LNL.tdTomato cells [2]) was “moderate level of recombination”.
For “GLFDIIKRIAESF [K8R, aurein 1.2 variant expressed as fusion with +36 GFP-Cre]”, the “toxicity of aurein 1.2 variants” value (BSR.LNL.tdTomato cells [7]) was “increased toxicity” and the “recombination efficiency of aurein 1.2 variants fused to +36 GFP-Cre” value (BSR.LNL.tdTomato cells [8]) was “potentially improved overall recombination efficiency”.

— patent US10258697B2, “Efficient delivery of therapeutic molecules in vitro and in vivo” (Massachusetts Eye and Ear Infirmary, priority 2014, dated 2019)
